From patent US20240407363A1 (priority 2021, published 2024)
In brackets after ≈: the same amount, converted by molar mass. Entries after “also recorded” stand apart in the source; their conditions may differ.

Legend:
X. perforans GEV-485 [1] = experiment: In vitro MIC and MBC determination in nutrient broth / on NA plates; assay type: cell-based; details: three trials
Description: (§1) X. perforans strain GEV-485, a copper-resistant strain, was used in this study to evaluate the antibacterial activity of Hx. Working cultures of GEV-485 were retrieved from −80° C. storage vials containing bacterial suspensions in 30% glycerol (v/v). Bacterial cells were taken from the storage, streaked on nutrient agar (NA; Difco™ Sparks, MD) plates and incubated for 48 h at 28° C. and single colonies were picked and streaked on NA plates to ensure bacterial purity for further cultures. NA amended with copper (II) sulfate pentahydrate (CuSO4·5H2O) (Fisher Scientific-Hampton, NH) at 20 ppm, was used as copper tolerance selective agent. To prepare the bacterial inoculum, a single bacterial colony was streaked on NA and incubated for 24 h at 28° C. From those plates, loops of bacterial cells were collected and resuspended in SDW amended with 0.01 M MgSO4. The bacterial concentration was adjusted to ˜5.0×10^8 colony-forming units (CFU)/mL based on an optical density (OD) of 0.3 at 600 nm. The in vitro studies were conducted to determine the minimum inhibitory concentration (MIC), minimum bactericidal concentration (MBC), and the antibacterial activity at different time points.
To determine MIC of Hx against X. perforans GEV-485, individual 96-well plates containing 100 μL of nutrient broth (NB) with varied copper and Hx concentrations were inoculated with 100 μL of the GEV-485 suspension at the concentration of 1.0×10^8 CFU/mL. The final chemical concentrations on the wells were 16, 32, 64, 128, 256, 512, 1024, 2048, 4096 and 8192 mg/L. Three wells with 100 µL of NB and 100 μL of the bacterial suspension were the controls. Solutions in all wells were thoroughly mixed by pipetting. The plate was, then, covered with a lid and incubated under stationary conditions at 28° C. for 24 h. The value of MIC for Hx and copper was determined as the minimum concentration (mg/L), at which the bacterial growth was inhibited (the solution was clear), among all tested concentrations of each chemical. After MIC was determined, an aliquot of 20 μL of the solution from the wells that gave a clear solution was plated on NA. […] The MBC was determined as the minimum concentration, at which >99.9% of the initial bacterial populations were killed and no visible growth of the bacterium was observed on the NA plates among all tested concentrations of antimicrobial agents. The experiment was repeated two more times, with three replications for each treatment.

[2] = system: X. perforans strain GEV-485; experiment: In vitro antibacterial activity at different time points (viable colony counts); assay type: cell-based
Description: as §1
For the antibacterial activity study of Hx at different time points, the bacterial suspension was prepared as described above. […] After incubation, total viable colonies for each tube were counted. […]

X. perforans GEV-485 [3] = experiment: Greenhouse in planta experiments, hexanoic acid soil drench, tomato bacterial spot ('Bonnie Best'); assay type: in vivo
Description: Hexanoic acid (Hx) (>99%, Sigma Aldrich) was tested for its effect on the management of bacterial leaf spot of tomato. Stock solutions of Hx (1.0×10^4 mg/L) were prepared with sterile distilled water (SDW) and stored at 4° C. for further dilutions. Copper treatment suspensions were prepared using Kocide® 3000 (DuPont, Wilmington DE) that contains 30% metallic Cu in the form of copper hydroxide [Cu(OH)2]. For greenhouse experiments, Kocide® 3000 at the rate of 2.1 g/L and Penncozeb 75DF (United Phosphorus Inc., King of Prussia, PA) at the rate of 1.2 g/L in SDW were prepared.
The plants were then moved to a growth chamber with temperature at 28° C., 12 h photoperiod and 80% relative humidity. Fifty mL of Hx at the tested rates were applied to 3-4 weeks old plants by soil drench, 4 and 2 days prior to bacterial inoculation to prime the plants and induce basal plant defense. Kocide® 3000 and a mixture of Kocide® 3000+Penncozeb® were sprayed on the tomato plants until runoff and allowed to air dry for 4 h before bacterial inoculation. Three plants were sprayed with SDW only, as a negative control. […] Disease severity and phytotoxicity were evaluated every other day using the Horsfall-Barratt scale (Horsfall and Barratt, 1945), starting from 3 days up to 20 days post inoculation. […]

## CCCCCC(=O)O [Hexanoic acid, hexanoic acid]
X. perforans GEV-485 [1]; 28° C. for 24 h, copper-resistant strain, read-out: MIC
  MIC: 512 mg/L (≈ 4.41 mM)
X. perforans GEV-485 [1]; >99.9% of initial bacterial populations killed, no visible growth on NA, read-out: MBC
  MBC: 1020 mg/L (≈ 8.82 mM)
[2]; at 256 mg/L or higher concentrations, after 4 hours of treatment
  colony growth after treatment: no colonies grew
[2]; higher concentrations of hexanoic acid
  bactericidal effect over time: bactericidal effects within an hour
X. perforans GEV-485 [3]; 512 mg/L applied only once as soil drench 1, 3, and 7 days prior to the bacterial inoculation
  bacterial spot disease (preliminary AUDPC, FIG. 9) compared to the control (UTC): did not appear to significantly reduce the bacterial spot disease
X. perforans GEV-485 [3]; different treatment concentrations, application two days prior to the bacterial inoculation, two-week rating period
  disease severity (AUDPC, FIG. 10) compared to the control (UTC): significantly (P<0.05) lower disease severity; also recorded: statistically significant (p<0.05) lower disease severity
